From the NIST ThermoML archive (doi:10.1016/j.fluid.2015.10.001)
Where “and” joins values, the source holds several entries; their conditions need not be identical. Equal values may be shown once. Numbers after ± are expanded uncertainties.

Tests used:
[1] = Crystal; for vapor or sublimation pressure: Transpiration method; for Normal melting temperature: DTA
[2] = Molar enthalpy of transition or fusion; conditions: Crystal; DSC

O=C(O)c1ccccc1F [2-fluorobenzoic acid]
[1]
Conditions | vapor or sublimation pressure [kPa]
333.9 K | 0.00321 ± 0.00023
334.6 K | 0.0035 ± 0.00023
335.9 K | 0.00389 ± 0.00026
337 K | 0.00451 ± 0.0003
338.9 K | 0.00528 ± 0.00035
340.2 K | 0.00614 ± 0.00044
342 K | 0.00738 ± 0.00051
342.2 K | 0.00734 ± 0.00051
345 K | 0.0094 ± 0.00064
346.6 K | 0.01115 ± 0.00075
348.3 K | 0.0132 ± 0.00088
351.2 K | 0.01709 ± 0.0011
352.4 K | 0.01997 ± 0.0013
353.2 K | 0.02087 ± 0.0014
354.2 K | 0.02242 ± 0.0015
356.5 K | 0.02903 ± 0.0019
358.2 K | 0.03398 ± 0.0022
358.3 K | 0.0322 ± 0.0021
360.5 K | 0.03997 ± 0.0026
361.3 K | 0.04428 ± 0.0028
363.4 K | 0.05001 ± 0.0032
364.5 K | 0.05529 ± 0.0036
367.2 K | 0.07204 ± 0.0046

Conditions | Molar enthalpy of transition or fusion [kcal/mol] | Normal melting temperature [°C]
[1] | – | 123.6 ± 0.4
[2] | 4.85 ± 0.143 | –

O=C(O)c1ccccc1I [2-iodobenzoic acid]
[1]
Conditions | vapor or sublimation pressure
362.4 K | 0.00113 ± 8e-05 kPa
367.6 K | 0.00188 ± 0.00013 kPa
376.2 K | 0.00432 ± 0.00028 kPa
381.9 K | 0.00744 ± 0.00051 kPa
386.9 K | 0.01099 ± 0.00075 kPa
393.2 K | 0.02004 ± 0.0013 kPa and 0.01875 ± 0.0012 kPa
397.2 K | 0.02759 ± 0.0018 kPa
399.2 K | 0.03193 ± 0.0021 kPa
403.2 K | 0.0431 ± 0.0028 kPa and 0.04492 ± 0.0029 kPa
407.3 K | 0.06078 ± 0.0039 kPa
411.5 K | 0.08737 ± 0.0055 kPa

Conditions | Molar enthalpy of transition or fusion [kcal/mol] | Normal melting temperature [°C]
[1] | – | 161.4 ± 0.4
[2] | 6.6 ± 0.143 | –

O=C(O)c1cccc(F)c1 [3-fluorobenzoic acid]
[1]
Conditions | vapor or sublimation pressure [kPa]
331.9 K | 0.00407 ± 0.00028
334.9 K | 0.00564 ± 0.00038
338 K | 0.00734 ± 0.00052
342.1 K | 0.01139 ± 0.00077
345 K | 0.01472 ± 0.00097
347.1 K | 0.01783 ± 0.0012
350.4 K | 0.02353 ± 0.0015
353.3 K | 0.03091 ± 0.002
356.5 K | 0.04119 ± 0.0027
359.5 K | 0.0543 ± 0.0035
362.6 K | 0.06845 ± 0.0043

Conditions | Molar enthalpy of transition or fusion [kcal/mol] | Normal melting temperature [°C]
[1] | – | 122.8 ± 0.4
[2] | 4.42 ± 0.0956 | –

O=C(O)c1cccc(I)c1 [3-iodobenzoic acid]
[1]
Conditions | vapor or sublimation pressure [kPa]
366.6 K | 0.00121 ± 9e-05
370.4 K | 0.00171 ± 0.00012
375.8 K | 0.00281 ± 0.0002
380.8 K | 0.00438 ± 0.00028
386 K | 0.00688 ± 0.00048
389.1 K | 0.00894 ± 0.00061
391.9 K | 0.01174 ± 0.00079
395.1 K | 0.01521 ± 0.001
399.2 K | 0.02068 ± 0.0014
404.1 K | 0.03146 ± 0.002
404.2 K | 0.03145 ± 0.002
409 K | 0.04684 ± 0.003
411.4 K | 0.05339 ± 0.0034
414.2 K | 0.06461 ± 0.0041
417.5 K | 0.08451 ± 0.0054
422 K | 0.1194 ± 0.0075

Conditions | Molar enthalpy of transition or fusion [kcal/mol] | Normal melting temperature [°C]
[1] | – | 185.8 ± 0.4
[2] | 6.62 ± 0.143 | –

O=C(O)c1ccc(F)cc1 [4-fluorobenzoic acid]
[1]
Conditions | vapor or sublimation pressure [kPa]
343 K | 0.00456 ± 0.00031
346.2 K | 0.00612 ± 0.00044
349.3 K | 0.00844 ± 0.00059
355.1 K | 0.01384 ± 0.00091
356.5 K | 0.01539 ± 0.001
359.5 K | 0.02097 ± 0.0014
363.7 K | 0.02861 ± 0.0018
365.6 K | 0.03441 ± 0.0022
366.9 K | 0.03729 ± 0.0024
371.8 K | 0.05523 ± 0.0035
375.8 K | 0.07688 ± 0.0049
380.9 K | 0.1162 ± 0.0074
385.2 K | 0.1594 ± 0.01
386.2 K | 0.1701 ± 0.011

Conditions | Molar enthalpy of transition or fusion [kcal/mol] | Normal melting temperature [°C]
[1] | – | 183.0 ± 0.4
[2] | 5.16 ± 0.12 | –

O=C(O)c1ccc(I)cc1 [4-iodobenzoic acid]
[1]
Conditions | vapor or sublimation pressure [kPa]
388.9 K | 0.00205 ± 0.00014
391.1 K | 0.00244 ± 0.00017
403.3 K | 0.00654 ± 0.00045
409.4 K | 0.01081 ± 0.00073
415.3 K | 0.01743 ± 0.0011
421.5 K | 0.02673 ± 0.0017
424.5 K | 0.03413 ± 0.0022
427.4 K | 0.04118 ± 0.0026
433.5 K | 0.06312 ± 0.004

Conditions | Molar enthalpy of transition or fusion [kcal/mol] | Normal melting temperature [°C]
[1] | – | 270.8 ± 0.4
[2] | 8.05 ± 0.215 | –
